{
  "source": "patent US20100278946A1",
  "about": "“HERBAL COMPOSITIONS COMPRISING PLANT MATERIAL OF ARTEMISIA HERBA-ALBA (ASSO) ASTERACEAE AND/OR EXTRACTS THEREOF” (priority 2007, published 2010)",
  "origin": "cited, not measured here",
  "key": {"[1]": {"system": "noncompetitive blocker site of the GABA gated chloride channel"}, "[2]": {"system": "gamma-aminobutyric acid (GABA) type A receptor", "conditions": "rat dorsal root ganglion neurons"}, "[3]": {"conditions": "2.5 min after administration of alpha-thujone"}, "[4]": {"conditions": "30 min after administration of alpha-thujone, 40-60 mg/kg"}},
  "note": "Read-outs that look alike come from different tables or passages of the source.",
  "data": [
    {"smiles": "CC1C(=O)CC2(C(C)(C)O)CC12", "note": "(stereo not drawn) [7-hydroxy-alpha-thujone]", "values": [
      {"measurement": "level in the brain", "setting": "[3]", "result": 29, "unit": "ppm"},
      {"measurement": "level in the brain", "setting": "[4]", "result": "1.5-8.4 ppm"}
    ]},
    {"smiles": "CC1C(=O)CC2(C(C)C)CC12", "note": "(stereo not drawn) [Beta-thujone, beta-thujone]", "values": [
      {"measurement": "potency relative to alpha-thujone (fold less potent)", "setting": "[1]; [3H]EBOB assay", "result": 2.3, "unit": "fold"},
      {"measurement": "toxicity compared with alpha-thujone", "setting": "mice; mice (Rice and Wilson, 1976) and Drosophila", "result": "less toxic"}
    ]},
    {"smiles": "CC(C)[C@]12CC(=O)[C@H](C)[C@H]1C2", "note": "[alpha-thujone]", "values": [
      {"measurement": "mode of inhibition of EBOB binding", "setting": "[1]", "result": "competitive inhibitor"},
      {"measurement": "potency compared with 7-hydroxy-alpha-thujone (fold more potent)", "setting": "[1]; [3H]EBOB binding assay", "result": 56, "unit": "fold"},
      {"measurement": "effect on GABA-induced peak currents", "setting": "[2]", "result": "suppressed"},
      {"measurement": "time to death after tonic convulsion", "setting": "mice; mice at the higher dose (60 mg/kg)", "result": "≤ 1", "unit": "min"},
      {"measurement": "mortality", "setting": "mice; mice, dose of 30 mg/kg", "result": "no death"},
      {"measurement": "mortality", "setting": "mice; mice, dose of 60 mg/kg", "result": 100, "unit": "%"},
      {"measurement": "i.p. LD50", "setting": "mice; mice, i.p.", "result": "about 45 mg/kg"},
      {"measurement": "level in the brain", "setting": "[3]", "result": 11, "unit": "ppm"},
      {"measurement": "level in the brain", "setting": "[4]", "result": "0.3-1.0 ppm"}
    ]},
    {"smiles": "CN1C(=O)CN=C(c2ccccc2)c2cc(Cl)ccc21", "note": "[diazepam]", "values": [
      {"measurement": "survival of mice given an otherwise lethal dose of alpha-thujone", "setting": "mice; intraperitoneal administration 15 min before alpha-thujone at 100 mg/kg", "result": "almost all of the mice surviving"}
    ]}
  ]
}
